Laboratory results taken from PubChem BioAssay (NCI).
Values joined by “and” are separate entries in the source; they are usually repeats but may differ in a detail not shown here. Equal entries are not always repeated.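 Method: 48-hour compound exposure of cells in 96-well plates, five concentrations, linear interpolation of endpoints. GI50 is the concentration that inhibits growth by half. The concentration for full growth arrest is given as TGI.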

What was measured:
Assay in all cases: inhibition of tumour cell growth, NCI panel, 48 h
A549 NSCLC = tested on: A549 NSCLC
K-562 leukemia = tested on: K-562 leukemia
SK-MEL-5 melanoma = tested on: SK-MEL-5 melanoma
HCT-116 colon = tested on: HCT-116 colon
IGROV1 ovarian = tested on: IGROV1 ovarian
OVCAR-8 ovarian = tested on: OVCAR-8 ovarian
LOX IMVI melanoma = tested on: LOX IMVI melanoma
SF-295 CNS = tested on: SF-295 CNS
OVCAR-4 ovarian = tested on: OVCAR-4 ovarian
A498 renal = tested on: A498 renal

SMILES	TGI (A549 NSCLC) [µM]	TGI (K-562 leukemia) [µM]	TGI (SK-MEL-5 melanoma) [µM]	TGI (HCT-116 colon)	TGI (IGROV1 ovarian) [µM]	TGI (OVCAR-8 ovarian)	TGI (LOX IMVI melanoma) [µM]	TGI (SF-295 CNS) [µM]	TGI (OVCAR-4 ovarian) [µM]	TGI (A498 renal) [µM]	GI50 (A549 NSCLC) [µM]	GI50 (K-562 leukemia) [µM]	GI50 (SK-MEL-5 melanoma) [µM]	GI50 (HCT-116 colon) [µM]	GI50 (IGROV1 ovarian) [µM]	GI50 (OVCAR-8 ovarian)	GI50 (LOX IMVI melanoma) [µM]	GI50 (SF-295 CNS) [µM]	GI50 (OVCAR-4 ovarian) [µM]	GI50 (A498 renal) [µM]
C/C(=N/NC(N)=S)C(CN1CCOCC1)C(C1=C(O)c2ccccc2OC1)c1ccccc1 (stereo not given)	> 100	> 100	> 100	> 100 µM	> 100	> 100 µM	> 100	> 100	> 100	> 100										
COc1cc(N)c(Cl)cc1C(=O)N[C@@H]1CCN(CCCOc2ccc(F)cc2)C[C@@H]1OC	> 100	74.1	> 100	> 100 µM	> 100	> 100 µM	> 100	> 100	> 100		> 100	26.3	17.8	41.8	> 100	> 100 µM	27	50.3	> 100	
CC(=O)/C(=N\N=C(N)N)c1ccccc1	> 100	> 100	> 100	> 100 µM	> 100	> 100 µM	> 100	> 100	> 100	> 100										
C/C(=N\NC(=S)N1CCCC1)c1ccccn1	10.5	> 55.9	0.42	12.1 µM	5.09	12.4 µM	11.1	5.9	2.3	2.37	< 0.01	< 0.01	0.0348	< 0.01	< 0.01	< 0.01 µM	< 0.01	< 0.01	< 0.01	0.0798
CC(NC1CCCC[C@@H]1O)c1ccccc1 (stereo not given in full)	> 100	> 100	> 100	> 100 µM	> 100	> 100 µM	> 100	> 100	> 100											
Cn1cc(-c2csc(-c3ccc(Cl)cc3)n2)c2cccnc21	46.4	38.3	27.6	25.4 µM	> 100	66.6 µM	24.9	34.4	60.8		17.6	12.9	13.9	12.8	22.3	22.8 µM	12.4	15.5	21.9	
C[C@]12CCC3c4ccc(O)cc4CCC3C1CC[C@@H]2NC(=O)/C=C/c1ccc(O)c(O)c1 (stereo not given in full)	31.8	55.4	25.2	23 µM	32.2	29.1 µM	17.8	44.8	24.7		15.5	6.51	10.5	10.6	12.1	10.4 µM	3.86	18.5	5.94	
COC(=O)C1=C(O)c2cc(OC)c(OC)c(OC)c2C(c2ccc3c(c2)OCO3)[C@@H]1C(=O)OC (stereo not given in full)	> 100	> 100		> 100 µM	> 100	> 100 µM	> 100	13.4	> 100	19.2										
CCCCS(=O)(=O)c1cc(Nc2ccc(O)c3c2C(=O)c2ccccc2C3=O)ccc1C	> 100			> 100 µM	> 100	> 100 µM		> 100		> 100	1.88			> 100	> 100	> 100 µM		5.77		> 100
O=C(O)C(Cc1ccccc1)N1C(=O)/C(=C/C(Cl)=C/c2ccc([N+](=O)[O-])cc2)SC1=S (stereo not given)	> 100	> 100	3.06	5.47 µM		> 100 µM	3.26	7.85	> 100	3.24	3.46	3.01	1.68	2.01		3.13 µM	1.64	2.59	3.21	1.65
Nc1ccccc1SC(/C=C/NNC1=NC(c2ccccc2)C(c2ccccc2)=NN1)c1ccccc1 (stereo not given)	33.4	35.7	26.8		32.5	49 µM	27.1	24.5	28.7	36.8										
CCOc1ccc2cc(-c3nn(CC4CCN(C)CC4)c4ncnc(N)c34)ccc2c1	40.2	27.7	29.3	28.1 µM	31.4		59	29.2	29.7	25.2	17.9	11.6	15.8	12.1	11.2		19.4	14.5	12.9	11.8
O=c1cc(-c2ccccc2)oc2cc(OCCCCCCCCCCOc3ccc4c(=O)cc(-c5ccccc5)oc4c3)ccc12	> 100	> 100	> 100	> 100 µM	> 100	> 100 µM		> 100	> 100											
COc1cc(C=NCC(=O)CSC(c2ccccc2)c2ccccc2)ccc1O	26	23.3	18.2	21 µM		25.1 µM	23.5	46.9	23		10.7	4.73	4.83	8.69		12.6 µM	10.5	14.6	5.32	
C=C(c1ccccc1)c1cc2c(=O)[nH]ccc2n1C	> 100	46.3	71.1		> 100	> 100 µM	> 100	82.9	> 100											
CSC(=S)NCc1cn(C)c2ccccc12	> 100		32.8	> 100 µM	> 100	90.6 µM	94.1	> 100	> 100	29.2	38.1		13.9	50.5	26.1	24.2 µM	26.5	33.5	62	12.8
NCCOCCOCC(=O)O	> 100	> 100	> 100	> 100 µM	> 100	> 100 µM		> 100	> 100											
O=C(O)C1CC2C=CCC(C2)C1 (stereo not given)	> 100	> 100	> 100	> 100 µM	> 100	> 100 µM	> 100	> 100	> 100											
CCNC(=O)COc1ccc(Cl)c(C)c1	> 100	> 100	> 100	> 100 µM	> 100		> 100	> 100	> 100	> 100										

SMILES	TGI (A549 NSCLC) [µM]	TGI (K-562 leukemia) [µM]	TGI (SK-MEL-5 melanoma) [µM]	TGI (HCT-116 colon)	TGI (IGROV1 ovarian) [µM]	TGI (OVCAR-8 ovarian)	TGI (LOX IMVI melanoma) [µM]	TGI (SF-295 CNS) [µM]	TGI (OVCAR-4 ovarian) [µM]	TGI (A498 renal) [µM]	GI50 (A549 NSCLC) [µM]	GI50 (K-562 leukemia) [µM]	GI50 (SK-MEL-5 melanoma) [µM]	GI50 (HCT-116 colon) [µM]	GI50 (IGROV1 ovarian) [µM]	GI50 (OVCAR-8 ovarian)	GI50 (LOX IMVI melanoma) [µM]	GI50 (SF-295 CNS) [µM]	GI50 (OVCAR-4 ovarian) [µM]	GI50 (A498 renal) [µM]
C=C(CN1CCc2ccccc2C1)c1ccc(CCCC(=O)Nc2ccccc2N)cc1	58.8	25.3	17.3	33.3 µM		62.8 µM	21.7	39.9	49.8	26.1	16.4	0.505	5.01	12.8		18.4 µM	9.15	14.6	14.5	12.6
CN(CCOc1ccc(NS(C)(=O)=O)cc1)CCc1ccc(NS(C)(=O)=O)cc1	> 100	> 100		> 100 µM	> 100	> 100 µM	> 100	> 100	> 100	> 100	> 100	> 100		> 100	> 100	> 100 µM	> 100	> 100	> 100	96
OC(Cc1cccc2ccccc12)CN1CCC(c2ccccc2)CC1 (stereo not given)	29.9	38.1	24.4	28.7 µM		32 µM	29.5	27.9												
C=C(CN1CCN(c2ccccn2)CC1)c1ccc(C(=O)Nc2ccccc2N)cc1	37.3	> 50	1.75	32.1 µM	37.8	> 50 µM		6.52	> 50		2.4	0.956	0.726	2.5	1.57	1.5 µM		1.39	6.35	
COC(OC)c1cccnc1C	> 100	> 100	> 100	> 100 µM	> 100	> 100 µM	> 100	> 100	> 100											
OC[C@H]1N[C@H](CO)[C@@H](O)[C@H]1O	> 100	> 100	> 100	> 100 µM	> 100	> 100 µM	> 100	> 100		> 100										
COC(=O)c1c(C(=O)O)c(-c2ccccc2)c(-c2ccccc2)c(-c2ccccc2)c1-c1ccccc1	> 100	> 100	> 100	> 100 µM	> 100	> 100 µM	> 100	> 100			> 100	87	> 100	77.9	> 100	> 100 µM	> 100	> 100		
CC(C)(C1=NC(C(C)(C)C)CO1)C1=N[C@@H](C(C)(C)C)CO1 (stereo not given in full)	> 100	> 100	> 100	> 100 µM	> 100	> 100 µM	> 100	> 100	> 100											
COc1cc(C2CC(c3ccc(Cl)cc3)=NN2C(C)=O)ccc1Oc1ccnc2cc(Cl)ccc12 (stereo not given)		> 100	> 100		> 100			> 100		> 100		> 100	> 100		> 100			4.22		4.09
Nc1ccc(C(=O)N/C(=C\c2ccc3c(c2)OCO3)c2nc3ccccc3s2)cc1	31	38	29.2		31.7	28.9 µM		30.3	25.1											
CN(C)C(=S)/N=c1\ssc(=Nc2ccccc2)n1-c1ccccc1	> 100	> 100			> 100	68.7 µM	87	> 100	18.9	> 100										
COc1c2c(c(O)c3c4c(c(C)cc13)C1OC3(C(OC)OC5CC(C)(O)C(OC6CC(C)(O)C(O)C(C)O6)C(C)O5)OC1C(OC)(O4)C31CO1)C(=O)C(O)CC2OC1CC(C)(O)C(OC(C)=O)C(C)O1 (stereo not given)	1.45	1.66	< 0.01	5.74 µM	0.957			< 0.023	< 0.01											
C/C(=C\c1ccccc1)C(=O)c1c(C)cc(C)cc1C	> 100	> 100	> 100	> 100 µM	> 100	> 100 µM		> 100	> 100											
CN1C2C=CC(=O)C1C(C#N)C2 (stereo not given)	> 100	> 100	> 100	54.9 µM and > 100 µM	> 100	44.8 µM and > 100 µM		> 100		> 100						20.5 µM and 45.7 µM				
O=C(NCCCN1CCN(CCCNC(=O)Nc2cc(Cl)ccc2Cl)CC1)Nc1cc(Cl)ccc1Cl	> 100	> 100	> 100	> 100 µM	> 100	> 100 µM	> 100	> 100	> 100											
c1ccc(N2CCN(CCN3CCc4c([nH]c5ccccc45)C3c3cccnc3)CC2)cc1 (stereo not given)	> 100	> 100	> 100	> 100 µM	> 100	> 100 µM		> 100	> 100	> 100										
S=C(Nc1ccc(-c2nc3ccccc3s2)cc1)Nc1ccc(-c2nc3ccccc3s2)cc1	78.5	87.6	26.6	33.9 µM	41.7	49.4 µM	30.5	> 100	99.4		22.4	26.4	13.5	16.6	13	19.9 µM	15.2	17.6	24.4	
CCNc1ccc2c(c1)C(=O)N(OS(C)(=O)=O)C2=O	> 100		> 100	> 100 µM		> 100 µM	> 100	> 100	> 100	> 100										
